Results taken from patent US20120040951A1, “HETEROARYL COMPOUNDS USEFUL AS RAF KINASE INHIBITORS” (priority 2008, published 2012).

System: phospho-ERK in melanoma derived WM-266-4 cells
Assay: Mechanistic cellular assay for Raf kinase activity (phospho-ERK, Bio-Plex)
Format: cell-based
Conditions: Homo sapiens, treated 1-2 hr at 37° C., serum free medium, read-out: pERK EC50
Source text: (2) Mechanistic Cellular Assay for Raf Kinase Activity
The following method was utilized for quantifying the amount of phospho-ERK in melanoma derived WM-266-4 cells (one allele each of wild type BRaf and mutant BRaf (V600D) as an indicator of Raf kinase activity in cells treated with various kinase inhibitors.
(1) Detached adhered WM-266-4 cells from flask using 0.25% Trypsin. Resuspended cells in growth media (90% RPMI 1640, 10% FBS) and determine cell density.
(2) Seeded cells @ 10,000 cells/well in 96-well (flat bottom) tissue culture plates (36,000 cells/cm^2). Added growth media to a final volume of 200 uL/well and incubated overnight at 37° C.
(1) Prepared compound dilutions (1000× in DMSO) as follows. Starting with a stock of 5 mM compound in DMSO, diluted serially 3-fold in DMSO for a total of eight concentrations (5 mM, 1.67 mM, 0.556 mM, 0.185 mM, 0.062 mM, 0.021 mM, 0.007 mM, 0.002 mM).
(2) Prepared compound-containing media by adding 1 mL treatment media (100% RPMI 1640 without FBS) to 1 μL of compound dilution (from step 3).
(3) Removed plates (from step 2) from incubator. Aspirated media and replace with 150 μL compound-containing media. Incubate for 1-2 hr at 37° C.
(4) Removed plates (from step 5) from incubator and treated each as follows: aspirated compound-containing media and replaced with 300 μL ice-cold 1×PBS, aspirated PBS and replaced with 45 μL lysis buffer (Biorad Bio-Plex lysis buffer containing 0.4% v/v lysis buff. Factor 1, 0.2% v/v lysis buff. Factor 2, and PMSF to 2 mM final concentration), and then placed plate on ice until all plates were treated.
(5) After all plates were processed (step 6), placed plates on an orbital shaker and shook at room temperature for at least 15 min.
(6) Finally, removed plates from shaker, and transfered 40 μL/well of lysate from each to new corresponding 96-well V-bottom plates. At this point, samples may be frozen and stored @−80 C.°.
(1) Thaw (if necessary) plates (from step 8) and added 40 μL of Phospho-Protein Assay Buffer to each 40 μL lysate for a 1:1 dilution.
(2) Prepared phospho-ERK1,2 Bioplex beads by diluting 1:50 with Bioplex Wash Buffer (mixing 49 μL Wash Buffer with 1 μL of phospho-ERK1,2 Bioplex beads for each sample to be analyzed). Protected from light by wrapping tube in aluminum foil and kept at room temperature.
(3) Prepared Filter Plate by adding 100 μL/well Bioplex Wash Buffer and removed by vacuum filtration.
(4) Add 50 μL of bead solution (from step 10) to each well of a prepared Filter Plate (from step 11) and vacuum filter. Wash/filter 2× with 100 μL/well Wash Buffer.
(5) Added 50 μL of each lysate to appropriate well of the Filter Plate (from step 12). For this and all subsequent plate incubation steps, placed plate on an inverted plate cover (reduces background), and wrapped in aluminum foil (to protect from light). Shook overnight at room temperature. Included positive (control lysate) and negative (lysis buffer) controls.
(1) Prepared detection antibody (phospho-ERK1,2 Ab) by diluting 1:25 with Detection Antibody Dilution Buffer Buffer (mixing 24 μL Detection Antibody Dilution Buffer with 1 μL of phospho-ERK1,2 Ab for each sample to be analyzed).
(2) Removed plate (from step 13) from shaker and vacuum filter. Washed/filter plate 3× with 100 μL/well Wash Buffer. Added 25 μL of diluted antibody to each well. Incubated on shaker at RT for 30-45 min.
(3) Prepared streptavidin-PE by diluting 1:100 with Wash Buffer (mixing 49.5 μL Wash Buffer with 0.5 μL of 100× streptavidin-PE for each sample to be analyzed). Protected from light.
(4) Removed plate (from step 15) from shaker and vacuum filter. Washed/filter plate 3× with 100 μL/well Wash Buffer. Add 50 μL of diluted streptavidin-PE solution (from step 16) to each sample well. Incubated on shaker for 10-20 min.
(5) Removed plate from shaker and vacuum filter. Wash/filter plate 3× with 100 μL/well Bead Resuspension Buffer. After last wash resuspended beads in 125 μL Bead Resuspension Buffer. […]

SMILES: Cc1c(C(=O)N[C@H](C)c2ncc(C(=O)Nc3cc(C(F)(F)F)c(Cl)cn3)s2)cnn1C [Example 115]
- EC50: ≤ 0.1 µM

SMILES: C[C@@H](NC(=O)c1cn[nH]c1)c1ncc(C(=O)Nc2cc(C(F)(F)F)c(Cl)cn2)s1 [Example 112]
- EC50: 0.1 to 1 µM

SMILES: CC(NC(=O)c1cc2c(cn1)ncn2CCNC(=O)OC(C)(C)C)c1cnc(Nc2ccc(C(F)(F)F)cc2)s1 (centres unmarked) [Example 21]
- EC50: 0.1 to 1 µM

SMILES: C[C@@H](NC(=O)c1cnn2c1CCCC2)c1ncc(C(=O)Nc2cc(C(F)(F)F)c(Cl)cn2)s1 [Example 85]
- EC50: ≤ 0.1 µM

SMILES: C[C@@H](NC(=O)c1cncn1-c1ccccc1)c1ncc(C(=O)Nc2cc(C(F)(F)F)c(Cl)cn2)s1 [Example 144]
- EC50: 0.1 to 1 µM

SMILES: COc1ncc(C(=O)N[C@H](C)c2ncc(C(=O)Nc3cc(C(F)(F)F)c(Cl)cn3)s2)n1C [Example 157]
- EC50: 1 to 10 µM

SMILES: C[C@@H](NC(=O)c1cnc(N)n1C)c1ncc(C(=O)Nc2cc(C(F)(F)F)c(Cl)cn2)s1 [Example 147]
- EC50: ≤ 0.1 µM

SMILES: CCS(=O)(=O)N1CC(n2cnc3cnc(C(=O)N[C@H](C)c4cnc(Nc5ccc(C(F)(F)F)cc5)cn4)cc32)C1 [Example 342]
- EC50: ≤ 0.1 µM

SMILES: COCCn1c(C(=O)N[C@H](C)c2ncc(C(=O)Nc3cc(C(F)(F)F)c(Cl)cn3)s2)cnc1C [Example 152]
- EC50: ≤ 0.1 µM

SMILES: C[C@@H](NC(=O)c1cnc2n1CCCCC2)c1ncc(C(=O)Nc2cc(C(F)(F)F)c(Cl)cn2)s1 [Example 168]
- EC50: ≤ 0.1 µM

SMILES: CCc1nc2cnc(C(=O)NC(C)c3ncc(Nc4ccc(C(F)(F)F)cc4)s3)cn2c1NC(C)(C)CC(C)(C)C (centres unmarked) [Example 306]
- EC50: 1 to 10 µM

SMILES: CCn1cnc2cnc(C(=O)NC(C)c3cnc(Nc4ccc(C(F)(F)F)cc4)cn3)cc21 (centres unmarked) [Example 38]
- EC50: ≤ 0.1 µM

SMILES: C[C@@H](NC(=O)c1cnc(NCCN2CCCC2)s1)c1ncc(C(=O)Nc2cc(C(F)(F)F)c(Cl)cn2)s1 [Example 105]
- EC50: 0.1 to 1 µM

SMILES: CC(NC(=O)c1cc2c(cn1)ncn2C)c1cnc(Nc2ccc(Cl)c(S(=O)(=O)C(F)(F)F)c2)cn1 (centres unmarked) [Example 269]
- EC50: ≤ 0.1 µM

SMILES: CC(NC(=O)c1cc2c(cn1)ncn2C)c1cnc(Nc2ccc(C(F)(F)F)nc2)s1 (centres unmarked) [Example 246]
- EC50: 0.1 to 1 µM

SMILES: CC(NC(=O)c1cc2c(cn1)ncn2C)c1cnc(Nc2cccc(C(C)(C)C)c2)s1 (centres unmarked) [Example 257]
- EC50: ≤ 0.1 µM

SMILES: CC(NC(=O)c1cc2c(cn1)nc(N)n2C)c1cnc(Nc2ccc(C(F)(F)F)nc2)s1 (centres unmarked) [Example 293]
- EC50: 0.1 to 1 µM

SMILES: CC(NC(=O)c1cnn2cc(-c3cncnc3)ccc12)c1ncc(C(=O)Nc2cc(C(F)(F)F)c(Cl)cn2)s1 (centres unmarked) [Example 328]
- EC50: ≤ 0.1 µM

SMILES: C[C@@H](NC(=O)c1cncn1C)c1ncc(C(=O)Nc2cc(C(F)(F)F)c(Cl)cn2)s1 [Example 141]
- EC50: 0.1 to 1 µM

SMILES: CC(NC(=O)c1cc2c(cn1)ncn2C1CCN(C)CC1)c1cnc(Nc2ccc(C(F)(F)F)cc2)s1 (centres unmarked) [Example 11]
- EC50: 0.1 to 1 µM

SMILES: CC(NC(=O)c1cc2c(cn1)ncn2C)c1cnc(Nc2cc(C(F)(F)F)c(Cl)cn2)cn1 (centres unmarked) [Example 254]
- EC50: 1 to 10 µM

SMILES: C[C@@H](NC(=O)c1cnc2n1CC(=O)N2)c1ncc(C(=O)Nc2cc(C(F)(F)F)c(Cl)cn2)s1 [Example 170]
- EC50: 0.1 to 1 µM

SMILES: CCc1ncc(C(=O)N[C@H](C)c2ncc(C(=O)Nc3cc(C(F)(F)F)c(Cl)cn3)s2)n1CC [Example 163]
- EC50: 0.1 to 1 µM

SMILES: CC(NC(=O)c1cc2c(cn1)ncn2C)c1cnc(Nc2ccc(Cl)cc2)cn1 (centres unmarked) [Example 255]
- EC50: 0.1 to 1 µM

SMILES: CC(NC(=O)c1cc2c(cn1)ncn2C)c1cnc(Nc2cccc(C(F)(F)F)n2)s1 (centres unmarked) [Example 253]
- EC50: 0.1 to 1 µM

SMILES: C[C@@H](NC(=O)c1cc2c(cn1)ncn2C)c1cnc(Nc2ccc(Cl)c(C(F)(F)F)c2)cn1 (single isomer, unassigned) [Example 236]
- EC50: ≤ 0.1 µM

SMILES: CC(NC(=O)c1cc2c(cn1)ncn2C)c1cnc(Nc2ccc(S(=O)(=O)C(F)(F)F)cc2)s1 (centres unmarked) [Example 250]
- EC50: 0.1 to 1 µM

SMILES: CCc1nc2cnc(C(=O)NC(C)c3ncc(Nc4ccc(C(F)(F)F)cc4)s3)cn2c1N (centres unmarked) [Example 307]
- EC50: 1 to 10 µM

SMILES: CC(NC(=O)c1cc2c(cn1)ncn2C)c1cnc(Nc2cc(C(C)(C)C(F)(F)F)ccc2F)s1 (centres unmarked) [Example 274]
- EC50: ≤ 0.1 µM

SMILES: CC(NC(=O)c1cccc(N2CCOCC2)n1)c1ncc(C(=O)Nc2cc(C(F)(F)F)c(Cl)cn2)s1 (centres unmarked) [Example 88]
- EC50: 0.1 to 1 µM

SMILES: C[C@@H](NC(=O)c1cnc2ncccn12)c1ncc(C(=O)Nc2cc(C(F)(F)F)c(Cl)cn2)s1 [Example 137]
- EC50: 0.1 to 1 µM

SMILES: CC(NC(=O)c1cc2scnc2cn1)c1cnc(Nc2ccc(C(F)(F)F)cc2)s1 (centres unmarked) [Example 208]
- EC50: ≤ 0.1 µM

SMILES: CC(NC(=O)c1cnn2c1CCCC2)c1ncc(C(=O)Nc2cc(C(F)(F)F)c(Cl)cn2)s1 (centres unmarked) [Example 84]
- EC50: ≤ 0.1 µM

SMILES: CC(NC(=O)c1cccc(CN2CCOCC2)c1)c1ncc(C(=O)Nc2cc(C(F)(F)F)c(Cl)cn2)s1 (centres unmarked) [Example 46]
- EC50: 1 to 10 µM

SMILES: Cc1ncc(C(=O)N[C@H](C)c2ncc(C(=O)Nc3cc(C(F)(F)F)c(Cl)cn3)s2)n1C [Example 146]
- EC50: ≤ 0.1 µM

SMILES: C[C@@H](NC(=O)c1cnc(N)s1)c1ncc(C(=O)Nc2cc(C(F)(F)F)c(Cl)cn2)s1 [Example 102]
- EC50: ≤ 0.1 µM

SMILES: C[C@@H](NC(=O)c1cnc2n1CCC2)c1ncc(C(=O)Nc2cc(C(F)(F)F)c(Cl)cn2)s1 [Example 336]
- EC50: ≤ 0.1 µM

SMILES: CCN1CC(n2cnc3cnc(C(=O)NC(C)c4cnc(Nc5cnc(C(C)(C)C)nc5)s4)cc32)C1 (centres unmarked) [Example 288]
- EC50: 0.1 to 1 µM

SMILES: C[C@@H](NC(=O)c1ccc2c(ccn2C)c1)c1ncc(C(=O)Nc2cc(C(F)(F)F)c(Cl)cn2)s1 [Example 69]
- EC50: 1 to 10 µM

SMILES: Cc1nc2cnc(C(=O)NC(C)c3ncc(Nc4ccc(C(F)(F)F)cc4)s3)cn2c1N (centres unmarked) [Example 305]
- EC50: 0.1 to 1 µM

SMILES: CC(NC(=O)c1cc2c(cn1)ncn2C)c1cnc(Nc2ccccc2)s1 (centres unmarked) [Example 247]
- EC50: 1 to 10 µM

SMILES: C[C@@H](NC(=O)c1cc2nc[nH]c2cn1)c1ncc(C(=O)Nc2cc(C(F)(F)F)c(Cl)cn2)s1 [Example 39]
- EC50: ≤ 0.1 µM

SMILES: CC(NC(=O)c1cc2c(cn1)ncn2C)c1cnc(Nc2ccc(Cl)c(C(F)(F)F)c2)cn1 (centres unmarked) [Example 232]
- EC50: ≤ 0.1 µM

SMILES: C[C@@H](NC(=O)c1cnn(-c2ccccc2)c1)c1ncc(C(=O)Nc2cc(C(F)(F)F)c(Cl)cn2)s1 [Example 117]
- EC50: 1 to 10 µM

SMILES: C[C@@H](NC(=O)c1cnc2n1CCCCN2)c1ncc(C(=O)Nc2cc(C(F)(F)F)c(Cl)cn2)s1 [Example 171]
- EC50: ≤ 0.1 µM

SMILES: CCNc1cnc2cnc(C(=O)NC(C)c3ncc(Nc4ccc(C(F)(F)F)cc4)s3)cn12 (centres unmarked) [Example 303]
- EC50: 0.1 to 1 µM

SMILES: C[C@@H](NC(=O)c1c[nH]cn1)c1ncc(C(=O)Nc2cc(C(F)(F)F)c(Cl)cn2)s1 [Example 142]
- EC50: 1 to 10 µM

SMILES: Cc1ncc(C(=O)N[C@H](C)c2ncc(C(=O)Nc3cc(C(F)(F)F)c(Cl)cn3)s2)n1-c1cccnc1 [Example 162]
- EC50: ≤ 0.1 µM

SMILES: CCCn1ncc(C(=O)N[C@H](C)c2ncc(C(=O)Nc3cc(C(F)(F)F)c(Cl)cn3)s2)c1C [Example 122]
- EC50: 0.1 to 1 µM

SMILES: CC(NC(=O)c1cc2c(cn1)ncn2C)c1cnc(Nc2cccc(C(F)(F)F)c2)s1 (centres unmarked) [Example 178]
- EC50: 0.1 to 1 µM

SMILES: CC(NC(=O)c1cnn2cc(-c3cc(F)nc(F)c3)ccc12)c1nc(C(=O)Nc2cc(C(F)(F)F)c(Cl)cn2)cs1 (centres unmarked) [Example 325]
- EC50: 0.1 to 1 µM

SMILES: C[C@@H](NC(=O)c1cnn(C)c1Cl)c1ncc(C(=O)Nc2cc(C(F)(F)F)c(Cl)cn2)s1 [Example 124]
- EC50: ≤ 0.1 µM

SMILES: CC(NC(=O)c1cc2cnn(C)c2cn1)c1cnc(Nc2ccc(C(F)(F)F)cc2)s1 (centres unmarked) [Example 204]
- EC50: 1 to 10 µM
